In patent publication US9763980B2, “Combined chemical modification of sphingosine-1-phosphate (S1P) and CXCR4 signalling pathways for hematopoietic stem cell (HSC) mobilization and engraftment” (Children's Medical Center Corporation, priority 2011, dated 2017):

How the values were obtained:
[1] = tested on: graft coronary artery disease and graft-versus-host disease (GVHD); conditions: mouse models for graft coronary artery disease and graft-versus-host disease (GVHD); cited from earlier work
acute viral myocarditis = conditions: mouse model for acute viral myocarditis; cited from earlier work
[2] = tested on: experimental autoimmune encephalomyelitis (EAE); conditions: EAE in rats, a model for human multiple sclerosis; cited from earlier work
[3] = tested on: CHT hematopoiesis (HSPC markers cmyb and runx1 in the CHT); assay: Zebrafish embryo chemical treatment and dose matrices, whole mount in situ hybridization of cmyb/runx1 in the CHT; assay type: in vivo
Description: Transgenic zebrafish embryos were intercrossed and selected using epifluorescence (e.g. Runx1+23:EGFP, cmyb:EGFP^4, cd41:EGFP^2, kdrl:DsRed2^31). Live imaging was performed using a spinning disk confocal microscope with an incubated chamber. Zebrafish embryos were mounted and imaged as previously described. Live mouse fetal liver explants were prepared as previously described for aorta-gonad-mesonephros tissue^10. Image processing was done primarily with Fluorender^32 and ImageJ, which included the MTrackJ plugin^33 for manual cell tracking. For chemical screening and dose matrices, stage-matched AB embryos were dechorionated and arrayed 8-10/well in 96-well mesh-bottomed plates (Millipore). Embryos were treated from 48-72 hpf by placement directly in 96-well receiver plates containing small molecules diluted in E3 media+1% DMSO. Embryos were checked for circulation before fixation. Whole mount in situ hybridization was performed as previously described^34, with the addition of 0.2% glutaraldehyde to 4% formaldehyde at the post-fixation step. […] Lineage tracing was performed by injecting cd41:EGFP positive embryos with caged fluorescein conjugated to dextran (MW 10000). Embryos were uncaged in the DA at 28 hpf with a UV laser. Embryos were raised to 46 hpf in E3 media or E3+S1PR1 antagonist W146 (10 μM), then fixed for antibody staining to detect double positive cd41:EGFP and uncaged FITC HSPCs. Receptor fusion cDNAs (25 pg) were injected into one-cell embryos with Tol2 RNA (15 pg). Flow cytometry was performed using a LSR II and cells were sorted using a FACSAria (BD Biosciences). Flow cytometry data was analyzed using FACSDiva and FlowJo software.
Having followed newly born aortic HSPCs to the intermediate tissue, the inventors assessed the signaling pathways involved in embryonic migration. The inventors designed a chemical genetic screen to introduce small molecules to the zebrafish embryo from the peak window of HSPC migration to the CHT (48-72 hpf).

atopic dermatitis = conditions: mouse model for atopic dermatitis; cited from earlier work
autoimmune uveitis = conditions: rat model for autoimmune uveitis; cited from earlier work
autoimmune myocarditis = conditions: rat model for autoimmune myocarditis; cited from earlier work
[4] = tested on: inflammatory bowel disease including colitis; conditions: mouse models for inflammatory bowel disease including colitis; cited from earlier work
rheumatoid arthritis = conditions: rat models for rheumatoid arthritis; cited from earlier work
multiple sclerosis = conditions: cited from earlier work
[5] = tested on: systemic lupus erythematosus (SLE); conditions: mouse model for systemic lupus erythematosus (SLE); cited from earlier work
[6] = clinical trials; due to agonism of the S1P3 receptor; cited from earlier work
[7] = tested on: progressive mesangioproliferative glomerulonephritis; conditions: rat model for progressive mesangioproliferative glomerulonephritis; cited from earlier work
[8] = tested on: airway inflammation and induction of bronchial hyperresponsiveness; conditions: mouse model for airway inflammation and induction of bronchial hyperresponsiveness; cited from earlier work
HSC = conditions: Massberg et al.; cited from earlier work
[9] = tested on: ischemia-reperfusion injury; conditions: mouse model for ischemia-reperfusion injury; cited from earlier work
peripheral lymphocyte = conditions: in vivo; cited from earlier work
atherosclerosis = conditions: mouse models for atherosclerosis; cited from earlier work
[10] = tested on: brain inflammatory reaction following traumatic brain injury (TBI); conditions: rat model for brain inflammatory reaction following traumatic brain injury (TBI); cited from earlier work
asthma = conditions: mouse model for asthma; cited from earlier work
[11] = Phase II clinical trials, relapsing-remitting multiple sclerosis

SMILES: CCCCCCCCc1ccc(CCC(N)(CO)CO)cc1 [FTY720, 2-amino-2-[2-(4-octylphenyl)ethyl]propane-1,3-diol]
- therapeutic efficacy [1]: therapeutic efficacy
- therapeutic efficacy (acute viral myocarditis): therapeutic efficacy
- therapeutic efficacy [2]: therapeutic efficacy
- CHT score (greatest engraftment in dose matrix) ([3]; 15 μM AMD3100 and 5 μM FTY720): +2
- HSC engraftment ([3]; 3:1 ratio of FTY720:AMD3100): promote and enhance HSC engraftment
- migration of HSC from the bone marrow ([3]; 5:1 ratio of FTY720:AMD3100): promote migration of HSC
- cmyb/runx1 expression in the CHT ([3]; FTY720 5 μM alone, treatment from 48 hpf, 72 hpf embryos): little effect
- CHT hematopoiesis ([3]; FTY720 (5μM) combined with AMD3100 (15μM)): increase
- CHT hematopoiesis ([3]; FTY720 with increased AMD3100 dose): greatly reduced
- CHT hematopoiesis ([3]; combination of FTY720 and AMD3100 at specific combined doses (interaction matrix)): increased
- Experimental data: concentration of S1PR1 modulating agent in the combination effective at increasing HSC engraftment ([3]; combination with AMD3100): 5 µM
- Experimental data: concentration of S1PR1 modulating agent in the combination effective at increasing HSC mobilization ([3]; combination with AMD3100): 5 μM FTY720
- mobilization of HSC from the bone marrow in vivo ([3]; combination with AMD3100 in specific ratios): improves mobilization
- CHT hematopoiesis ([3]; dose matrices, agent combined with AMD3100): synergistic increases
- CHT hematopoiesis ([3]; each agent alone at the doses of the effective FTY720/AMD3100 combination): no effect
- therapeutic efficacy (atopic dermatitis): therapeutic efficacy
- therapeutic efficacy (autoimmune uveitis): therapeutic efficacy
- therapeutic efficacy (autoimmune myocarditis): therapeutic efficacy
- therapeutic efficacy [4]: therapeutic efficacy
- therapeutic efficacy (rheumatoid arthritis): therapeutic efficacy
- clinical disease activity (multiple sclerosis; [11]): reduce
- number of lesions detected by magnetic resonance imaging (MRI) (multiple sclerosis; [11]): reduce
- therapeutic efficacy (multiple sclerosis; multiple sclerosis, clinical trials): therapeutic efficacy
- therapeutic efficacy [5]: therapeutic efficacy
- adverse event [6]: transient asymptomatic bradycardia
- therapeutic efficacy [7]: therapeutic efficacy
- therapeutic efficacy [8]: therapeutic efficacy
- HSC egress from tissues (HSC): blocked
- therapeutic efficacy [9]: therapeutic efficacy
- lymphopenia (peripheral lymphocyte lowering) (peripheral lymphocyte): rapidly and reversibly induce lymphopenia
- therapeutic efficacy (atherosclerosis): therapeutic efficacy
- therapeutic efficacy [10]: therapeutic efficacy
- therapeutic efficacy (asthma): therapeutic efficacy
